Test results: patent publication US20080207522A1, “Antimicrobial Peptides” (priority 2004, published 2008)

Experiments:
[1] = test system: Pseudomonas aeruginosa strain H1001 fliC::luxCDABE; test: Luminescence-based assay for the non-cleaved (bound) peptides on cellulose membranes; format: cell-based; settings: for Luminescence at the given time in minutes: 0 / Luminescence at the given time in minutes: 20 / Luminescence at the given time in minutes: 40 / Luminescence at the given time in minutes: 60 / Luminescence at the given time in minutes: 80 / Luminescence at the given time in minutes: 100 / Luminescence at the given time in minutes: 120 / Luminescence at the given time in minutes: 180 / Luminescence at the given time in minutes: 240: cellulose-bound peptide; for Luminescence at the given time in minutes: 0: 0 min; for Luminescence at the given time in minutes: 20: 20 min; for Luminescence at the given time in minutes: 40: 40 min; for Luminescence at the given time in minutes: 60: 60 min; for Luminescence at the given time in minutes: 80: 80 min; for Luminescence at the given time in minutes: 100: 100 min; for Luminescence at the given time in minutes: 120: 120 min; for Luminescence at the given time in minutes: 180: 180 min; for Luminescence at the given time in minutes: 240: 240 min; for Activity Class bound: uncleaved cellulose-bound peptides
Description: Luminescence-based MIC assay for the non-cleaved peptides on cellulose membranes. The peptide spots were punched out and transferred to a 96 well microtiter plate with a clear polystyrene bottom and opaque white polypropylene sides (PerkinElmer, Boston, USA). The spots were washed two times with 100% ethanol for 5 min and afterwards equilibrated five times with 100 mM Tris buffer pH 7.3 for 5 min. An overnight culture of Pseudomonas aeruginosa strain H1001 fliC::luxCDABE was diluted 1:50 in new MH medium and incubated at 37° C. to an OD600 of 0.35. This bacterial culture was diluted 1:25 into 10 mM Tris-HCl buffer, pH 7.3 containing 20 mM glucose. Fifty μl of this culture was added to all wells of the microtiter plate and incubated at 37° C. The luminescence of the strain produced by the ATP-dependent luciferase system was detected in a time dependent manner using a Tecan Spectra Fluor plus (Tecan, Austria). At the end of the experiment, the membranes were cleaned by washing the spots two times with 100% ethanol for five minutes. After removing the ethanol the membrane was air-dried.
(§1) Strains. For the killing assay a mini-Tn5-lux mutant in Pseudomonas aeruginosa H103 was used. The strain is called H1001 and contains a fliC::luxCDABE transcriptional fusion resulting in constitutive expression of luciferase. The bacterial strains used for the antimicrobial activity assays included Escherichia coli UB1005 (F-, nalA37, metB1), a wild-type Salmonella enterica ssp. Typhimurium (S. Typhimurium), wild-type Pseudomonas aeruginosa PAO1 strain H103, Enterococcus faecalis ATCC29212, Staphylococcus aureus ATCC25923, and a clinical isolate of Staphylococcus epidermidis obtained from Dr. D. Speert (Department of Medicine, University of British Columbia). Antifungal activity was tested using a lab isolate of Candida albicans obtained from Dr. B. Dill (Department of Microbiology and Immunology, University of British Columbia).
The same set of peptides, as well as the reversed sequence of Bac2A-R ([…]; SEQ ID NO: 2166), were synthesized on cellulose and left uncleaved. The production of light was initially compared in wells containing spots of Bac2A, Bac2A-R (with the reversed sequence of Bac2A), the unrelated negative-control peptide, or, as additional controls, only cellulose, or only bacteria (FIG. 2).
As a control, the negative control (unrelated) peptide Bac429 and parent peptide Bac2A (=Bac001) were used in several different wells of the microtiter plate. Luminescence (relative light units; RLU) was measured at 14 different time points, 9 of which are shown. To permit comparison of the data with the free peptide data set, the result for each peptide was classified into six different groups, like the data set with the free peptides (Table 2). […] For the soluble peptides the following classes were established: […]

[2] = test system: Pseudomonas aeruginosa strain H1001; test: Assay for the cleaved (free, soluble) peptides from cellulose support, luminescence killing assay; format: cell-based; design: key: 1: Peptides showing stronger killing than Bac2A at a 4 to 8-fold higher dilution; Peptides showing stronger killing compared to that of Bac2A at a 4-fold higher dilution; 3: Peptides similar to Bac2A; 4: Peptides similar to Bac2A at the highest concentration but demonstrating weaker killing at a 2-fold dilution; 5: Peptides giving very weak or no killing at a 2-fold dilution; 6: Peptides with weak killing activity at the highest concentration; settings: free (cleaved) peptides, killing relative to Bac2A
Description: Assay for the cleaved peptides from cellulose support. The peptides were cleaved from the dried membrane in an ammonia atmosphere overnight, resulting in free peptides with an amidated C-terminus. The free peptides contained two β-alanines at the C-terminus, in addition to being amidated due to the linker between the cellulose membrane and the peptide sequence. The peptide spots were punched out and transferred in a 96-well microtiter plate. Serial dilutions were carried out from the membrane spots. Four rows were filled with four controls including two with Bac2A and two with of an unrelated peptide. The other eight rows were used for serial dilution steps of the peptide variants. An overnight culture of Pseudomonas aeruginosa strain H1001 was diluted 1:500 using either LB media or 100 mM Tris buffer pH 7.3, 20 mM glucose and was added to the wells (100 μl/well) containing the peptide spots. In all other wells 50 μl were added. The microtiter plate was incubated for 30 min at 37° C. to release the peptides from the membrane. Subsequently, a dilution series were performed and the plate was incubated at 37° C. The luminescence produced by the ATP dependent luciferase system were detected in a time dependent manner using a Tecan Spectra Fluor plus.
as §1
Peptide synthesis on cellulose is a very effective and inexpensive way to investigate many different peptide variants for one particular activity. However, one of the problems of this technique is the low peptide density synthesized on the membrane, about 280 nmol per cm2. An average peptide spot used for the experiments presented is about 0.3 cm2. Therefore, an assay had to be developed that was sensitive enough to show activity with this amount of peptides. P. aeruginosa H1001 has a reporter system (e.g., a luciferase gene cassette) incorporated into the bacterial chromosome in the fliC gene (involved in flagellar biosynthesis) that is constitutively expressed. It will thus produce light if ATP is present. When this strain is killed, e.g. by peptides, the amount of light produced will decrease due to a decrease in ATP levels in the killed cells. This action can thus be monitored by detecting luminescence in a microtiter plate luminescence reader over time. The volume and amount of cells per well were optimized for this assay. After screening, the killing action was monitored with small amounts of the parent peptide Bac2A (2 μg/ml of free peptide).
Forty-nine scrambled peptides (Bac002-Bac050) were synthesized on the cellulose support and then cleaved by ammonia gas resulting in free peptides with an amidated C-terminus including the linker. The peptide spots were transferred to a 96-well microtiter plate and incubated for 30 min to dissociate the peptides from the cellulose. After serial dilution and addition of strain H1001, luminescence was recorded in a time dependent manner (FIG. 1). All 50 scrambled peptides were compared to Bac2A ([…]-NH2; SEQ ID NO: 1) by this assay (see Table 2). […] Further since all scrambled peptides had some activity, a sequence-specific interaction of the peptides with a receptor or target could be excluded.

Row | Sequence | Luminescence at the given time in minutes: 0 [1] [RLU] | Luminescence at the given time in minutes: 20 [1] [RLU] | Luminescence at the given time in minutes: 40 [1] [RLU] | Luminescence at the given time in minutes: 60 [1] [RLU] | Luminescence at the given time in minutes: 80 [1] [RLU] | Luminescence at the given time in minutes: 100 [1] [RLU] | Luminescence at the given time in minutes: 120 [1] [RLU] | Luminescence at the given time in minutes: 180 [1] [RLU] | Luminescence at the given time in minutes: 240 [1] [RLU] | Activity Class bound [1] | Activity Class Soluble [2]
1 | ILVARVIRRRVA [Bac019] | 5239 | 7569 | 5731 | 4741 | 3822 | 3000 | 2373 | 1908 | 1570 | 5 (Peptides reducing luminescence (lux) values to between 1500 to 3000 after 240 min.) | 5
2 | ILVIVRRRARAV [Bac042] | 5171 | 6703 | 4453 | 2128 | 746 | 244 | 86 | 49 | 52 | 3 (Peptides similar to Bac2A resulting in lux values of less than 500 after 240 min.) | 3
3 | IRARIAVRRVVL [Bac004] | 3773 | 6547 | 5008 | 4405 | 3805 | 3125 | 2753 | 2459 | 2607 | 5 (Peptides reducing luminescence (lux) values to between 1500 to 3000 after 240 min.) | 3
4 | IRVRRLVAAVIR [Bac033] | 4795 | 6539 | 4785 | 4155 | 3565 | 3095 | 2639 | 2613 | 2962 | 5 (Peptides reducing luminescence (lux) values to between 1500 to 3000 after 240 min.) | 5
5 | IVRVAVALRRIR [Bac005] | 3853 | 6844 | 5163 | 4287 | 3443 | 2254 | 1891 | 1665 | 1791 | 5 (Peptides reducing luminescence (lux) values to between 1500 to 3000 after 240 min.) | 3
6 | LAIVRRARVRIV [Bac031] | 4646 | 7357 | 5808 | 5146 | 4145 | 3815 | 3472 | 3130 | 3247 | 6 (Peptides having residual luminescence (lux) values greater than 3000 after 240 min.) | 5
7 | RAIIRRVLVRVA [Bac024] | 4164 | 7630 | 5586 | 4358 | 3256 | 2398 | 1727 | 1384 | 1373 | 4 (Peptides reducing luminescence (lux) values to between 500 to 1499 after 240 min.) | 4
8 | RAIRVRRIVLAV [Bac037] | 4908 | 6480 | 4105 | 1624 | 366 | 120 | 54 | 59 | 46 | 3 (Peptides similar to Bac2A resulting in lux values of less than 500 after 240 min.) | 4
9 | RARIVRVRVILA [Bac016] | 4172 | 6362 | 2916 | 678 | 142 | 80 | 60 | 68 | 22 | 3 (Peptides similar to Bac2A resulting in lux values of less than 500 after 240 min.) | 2
10 | RARRVRVLIAIV [Bac036] | 5208 | 7062 | 5114 | 3233 | 1182 | 394 | 215 | 129 | 107 | 3 (Peptides similar to Bac2A resulting in lux values of less than 500 after 240 min.) | 4
